“Also recorded” adds a separate entry of the source. Where a name gives a salt, the structure may show the parent alone.
Key:
[1] = system: adult hippocampal precursors; assay: Adult hippocampal neurosphere culture; format: cell-based, mouse; details: for neurosphere numbers with antagonist alone / increase in neurosphere numbers compared to the control: no norepinephrine, antagonist alone; for increase in neurosphere numbers compared to the control / effect of antagonist on norepinephrine-stimulated increase in neurosphere numbers: yohimbine 1 μM, ICI118,551 10 nM; for effect of antagonist on norepinephrine-stimulated increase in neurosphere numbers: in presence of norepinephrine, prazosin 100 nM, propranolol 1 μM, CGP20712 10 nM, SR59230A 10 nM
Procedure: Animals were treated in accordance with the Australian Code of Practice for the Care and Use of Animals for Scientific Purposes and ethics approval was obtained for all experiments from the Animal Ethics Committee of the University of Queensland. 8-10 week old male C57/B16 mice were killed by cervical dislocation and their brains removed. Brains were bisected along the midline in the sagittal plane. The hippocampi were isolated from the overlying cortex and minced using a scalpel blade. Minced tissue was digested in 0.1% papain (Invitrogen, Melbourne, Australia) for 20 minutes at 37° C., after which an excess of NeuroCult NSC basal medium (Stem Cell Technologies, Vancouver, Canada) was added to halt the digestion. Tissue was then centrifuged at 100 rcf for 5 minutes, the resulting pellet was resuspended in 1 ml of complete neurosphere medium, and a single cell suspension was achieved by gentle trituration. The cells were filtered through a 40 μm cell sieve (BD Biosciences, Sydney, Australia) and resuspended in NeuroCult NSC basal medium containing NeuroCult proliferation supplements (Stem Cell Technologies), 2% bovine serum albumin (Invitrogen) and 2 μg/ml heparin (Sigma-Aldrich, Sydney, Australia). The growth factors added were 20 ng/ml EGF (receptor grade, BD Biosciences) and 10 ng/ml bFGF (recombinant bovine, Roche, Basel, Switzerland). The cells were then plated in a 96-well plate and cultured in complete neurosphere medium containing EGF and bFGF, in the presence or absence of 5-hydroxytryptamine hydrochloride (serotonin; 100 nM, 1 μM, 10 μM), L-(−)-noradrenaline (+)-bitartrate salt monohydrate (norepinephrine; 100 nM, 1 μM, 10 μM) or KCl (15 mM). The adrenergic receptor antagonists used were prazosin (100 nM), yohimbine (1 μM), propranolol (1 μM), CGP20712 (10 nM), ICI118,551 (10 nM) and SR59230A (10 nM). BRL37344 was used as a selective β3 adrenergic receptor agonist. All the compounds were purchased from Sigma-Aldrich. The number of primary neurospheres was counted on day 10-13 and expressed as a percentage relative to the control.

[2] = system: stem cells in the hippocampus; assay: i.p. treatment for 7 days, hippocampal neurospheres; format: in vivo, mouse; details: 10 mg/kg i.p. for 7 days
Procedure: (§1) Neurospheres with a diameter greater than […] may be derived from BRL37344 treated mice.

hippocampal precursors [3] = assay: Intrahippocampal infusion for 7 days, hippocampal neurospheres; format: in vivo, mouse; details: 10 μM intrahippocampal infusion for 7 days
Procedure: as §1

hippocampal precursors [4] = assay: Slice-sphere assay (hippocampal organotypic slices, then neurosphere culture); format: cell-based, rat; details: for effect on precursor numbers / frequency of neurosphere generation: 1 μM or 10 μM; for neurosphere frequency: FIG. 8b, 1 μM
Procedure: D-glucose (Sigma-Aldrich) was added to the medium to a final concentration of 5 mM. Four filters, each containing 6-7 hippocampal slices, were generated from a single animal. Plates were incubated at 37° C. in a humidified 5% CO2 incubator and the slices were cultured for 6 days. To assess the influence of specific compounds on hippocampal precursor proliferation in the slice culture, compounds were added to the complete medium at the doses described below. Two filters were treated with the compounds for each dose per experiment. On every alternate day half the medium was removed and replaced with fresh medium containing the compounds. Slices were treated with serotonin at 10 μM and 100 μM and norepinephrine at 1 μM, 10 μM and 100 μM. […] Propranolol (10 μM) was used to block β adrenergic receptors in the slices. On the 6th day of culture, the hippocampal slices from each treatment group were pooled and the tissue was minced using a scalpel blade. Minced tissue was then treated with 0.1% trypsin-EDTA (Invitrogen) for 5 minutes at 37° C. […] A single cell suspension was achieved by gentle trituration. The total number of viable cells in an aliquot was counted on a haemocytometer based on the exclusion of 0.08% trypan blue (Sigma-Aldrich). The cells were then cultured in complete neurosphere medium containing EGF and bFGF. […] For each experiment there were 20 wells plated for each of the doses per treatment group. The plates were incubated at 37° C. in a humidified 5% CO2 incubator.

Hes5-GFP-positive cells = assay: Neurosphere generation from FACS-sorted Hes5-GFP-positive cells; format: cell-based, mouse
Procedure: Brains from 8-12 weeks old male Hes5-GFP mice were removed and hippocampi were isolated as described earlier. A live cell suspension was prepared from the hippocampus using 0.1% papain, and the dead cells were labelled with propidium iodide (1 μg/ml). GFP-positive and -negative cells were then purified by fluorescence-activated cell sorting (FACS). Cells were sorted on a FACS Vantage (Becton Dickinson, Melbourne, Australia) with DIVA software. The […] was set relative to the basal fluorescence levels obtained from GFP-negative wild-type littermate controls and a conservative approach was used in selecting only high GFP-expressing cells. The cells were collected in basal medium and plated into 96-well tissue culture plates in medium containing EGF+bFGF with or without norepinephrine (10 μM).

hippocampal neurospheres = assay: Immunocytochemistry of neurospheres (multipotentiality); format: cell-based, mouse
Procedure: We next determined the multipotentiality of the cells present within the neurospheres generated in the presence and absence of norepinephrine (FIG. 2b, c, d).
Control or norepinephrine-stimulated neurospheres were plated onto poly-ornithine-coated cover slips or poly-D-lysine-coated BioCoat eight-well culture slides (BD Biosciences) in serum-free basal medium without any mitogens. The neurospheres were allowed to flatten and adhere for 4-6 days in a humidified, 5% CO2 incubator. They were then fixed with 4% paraformaldehyde in 0.1M phosphate buffered saline (PBS) at 4° C. for 40 min, and immunocytochemistry was performed as described previously 38 using antibodies to the neuronal marker βIII tubulin (1:2000; Promega, Madison, Wis.), the astrocytic marker GFAP (1:500; DakoCytomation, Carpinteria, Calif.) and the oligodendrocyte marker MBP (1:500; Millipore, Sydney, Australia). 4′,6′-diamidino-2-phenylindole (DAPI; 1:5000; Sigma-Aldrich) was used as a nuclear stain. Slides were mounted using fluoromount (DakoCytomation) and viewed on a Zeiss-Axio Imager microscope. Images were captured using a digital camera linked to a computer using Zeiss software.

[5] = system: norepinephrine-stimulated large neurospheres; assay: Hippocampal neurosphere passaging (self-renewal); format: cell-based, mouse; details: 10 μM; 15 out of 21
Description: To ascertain whether the norepinephrine-stimulated large neurospheres indeed reflected the activation of stem cells, individual neurospheres were selected and subjected to long-term passaging to assess their self-renewal capacity.
As a first step primary, neurospheres were individually dissociated and replated into fresh media not containing norepinephrine. Primary neurospheres from the unstimulated hippocampus were also passaged as single spheres. Hippocampal neurosphere cultures were initiated by removing 150 μl of the medium from wells containing single neurospheres, treating with 100 μl 0.1% trypsin-EDTA for 2 minutes at room temperature, followed by washing with 100 μl trypsin inhibitor in HEM. The neurospheres were mechanically triturated until dissociated and replated in 24 well plates in 2 ml of complete medium. Neurospheres were passaged every 10 days by centrifuging the neurospheres, removing the medium and incubating in 1 ml of 0.1% trypsin-EDTA for 2 minutes at room temperature. After the addition of an equal volume of trypsin inhibitor, the neurospheres were centrifuged at 100 rcf for 5 minutes and the supernatant removed. Cells were mechanically triturated in 500 μl of complete medium and trypan blue staining was used to evaluate the number of cells, both viable and total number, on a haemocytometer. […]

SMILES: COC(=O)[C@@H]1[C@H]2C[C@H]3c4[nH]c5ccccc5c4CCN3C[C@@H]2CC[C@@H]1O [yohimbine]
- neurosphere numbers with antagonist alone [1]: slight but significant increase
- increase in neurosphere numbers compared to the control [1]: 40%
- effect of antagonist on norepinephrine-stimulated increase in neurosphere numbers [1]: failed to inhibit

SMILES: COc1cc2nc(N3CCN(C(=O)c4ccco4)CC3)nc(N)c2cc1OC [prazosin]
- effect of antagonist on norepinephrine-stimulated increase in neurosphere numbers [1]: failed to inhibit

SMILES: CC(Cc1ccc(OCC(=O)[O-])cc1)NCC(O)c1cccc(Cl)c1.[Na+] (stereo not shown) [BRL37344]
- large neurospheres obtained [2]: increase in, large neurospheres; also recorded: increase in large neurospheres
- activation of stem cells in the hippocampus ([2]; 8 weeks old C57/B16 mice, n=7): significant activation of stem cells in the hippocampus
- activation of hippocampal precursors (hippocampal precursors [3]): activation of hippocampal precursors
- number of neurospheres with a diameter greater than 100 μM (hippocampal precursors [3]): much greater
- total number of neurospheres derived from treated mice (hippocampal precursors [3]): greater than when saline is infused
- neurosphere numbers compared to norepinephrine treatment ([1]; 1 μM and 10 μM, comparison 10 μM norepinephrine): increase in neurosphere numbers similar to that observed in the presence of 10 μM norepinephrine

SMILES: Cl.NCCc1c[nH]c2ccc(O)cc12 [serotonin, 5-hydroxytryptamine hydrochloride]
- effect on frequency of neurosphere formation (hippocampal precursors [4]; 10 μM or 100 μM): no effect
- neurosphere frequency as percentage of the control (hippocampal precursors [4]; slices treated at 10 μM): 90.07±5.4%
- neurosphere frequency as percentage of the control (hippocampal precursors [4]; slices treated at 100 μM): 102.81±31.7%
- neurosphere numbers compared to the control ([1]; 100 nM, 1 μM or 10 μM, EGF and bFGF present): no change

SMILES: CC(C)NCC(O)COc1cccc2ccccc12 (stereo not shown) [propranolol]
- effect on norepinephrine-mediated increase in precursor activity (hippocampal precursors [4]; propranolol 10 μM in presence of norepinephrine): completely inhibit; also recorded: abolished
- effect on reboxetine-mediated increase in precursor activity (hippocampal precursors [4]; propranolol 10 μM in presence of reboxetine): completely inhibit; also recorded: abolished
- neurosphere numbers with antagonist alone [1]: no toxic effect
- effect of antagonist on norepinephrine-stimulated increase in neurosphere numbers [1]: reduced the norepinephrine-mediated response back to control levels; also recorded: completely inhibited

SMILES: [Cl-].[K+] [KCl]
- increase in neurosphere numbers ([1]; KCl 15 mM alone): 2 fold

SMILES: CNCCC(Oc1ccc(C(F)(F)F)cc1)c1ccccc1 (stereo not shown) [fluoxetine]
- effect on precursor numbers / frequency of neurosphere generation (hippocampal precursors [4]): no significant change
- effect on precursor numbers / frequency of neurosphere generation (hippocampal precursors [4]; listed as Fluoxetine): no effect

SMILES: Cn1cc(C(F)(F)F)nc1-c1ccc(OCC(O)CNCCOc2ccc(O)c(C(N)=O)c2)cc1 (stereo not shown) [CGP20712, 2-hydroxy-5-(2-[{2-hydroxy-3-(4-[1-methyl-4-trifluoromethyl-2-imidazolyl]phenoxy)-propyl}amino]ethoxy)benzamide]
- effect of antagonist on norepinephrine-stimulated increase in neurosphere numbers [1]: no such effect

SMILES: CNCCCC12CCC(c3ccccc31)c1ccccc12 [maprotiline]
- neurosphere frequency (hippocampal precursors [4]): significant increase
- neurosphere frequency as percentage of the control (hippocampal precursors [4]; slices treated at 1 μM): 258.5±25.5%

SMILES: Cc1ccc(OCC(O)C(C)NC(C)C)c2c1CCC2 (stereo not shown) [ICI118,551]
- neurosphere numbers with antagonist alone [1]: significant increase
- increase in neurosphere numbers compared to the control [1]: about 34%

SMILES: CN(C)CCCC1(c2ccc(F)cc2)OCc2cc(C#N)ccc21 (stereo not shown) [citalopram]
- neurosphere frequency as percentage of the control (hippocampal precursors [4]; slices treated at 10 μM): 113.8±9.9%
- neurosphere frequency as percentage of the control (hippocampal precursors [4]; slices treated at 100 μM): 103.8±3.8%

SMILES: NC[C@H](O)c1ccc(O)c(O)c1 [norepinephrine, L-(−)-noradrenaline (+)-bitartrate salt monohydrate]
- very large neurospheres (>200 μm in diameter) (Hes5-GFP-positive cells; 10 μM, GFP-positive population): 7.3±0.8 neurospheres per hippocampus
- increase in neurosphere numbers (Hes5-GFP-positive cells; Hes5-GFP-positive cells plated at clonal density): 215.4±23.5%
- number of neurospheres from purified Hes5-GFP-positive precursor population (Hes5-GFP-positive cells; n=2 experiments, SR59230A 10 nM): 45.5±2.5 neurospheres
- increase in neurosphere frequency / precursor activity (hippocampal precursors [4]; slices treated at 100 μM): 3.5 fold
- neurons per stimulated large neurosphere (hippocampal neurospheres; all large neurospheres examined, n=9): > 50 neurons
- neurospheres containing MBP-positive oligodendrocytes (hippocampal neurospheres; stimulated neurospheres): One third
- neurospheres containing βIII tubulin-positive neurons (hippocampal neurospheres; stimulated neurospheres examined): 62 out of 82
- neurosphere numbers compared to the control ([1]; 100 nM and 1 μM): significant increase
- size of neurospheres ([1]; 10 μM): larger than the control neurospheres
- very large neurospheres generated ([1]; norepinephrine with or without SR59230A 10 nM): 12±2.08 neurospheres
- proportion of stimulated large neurospheres (>200 μm) that could be passaged over 10 times [5]: 71.4%

SMILES: CCOc1ccccc1OC(c1ccccc1)C1CNCCO1 (stereo not shown) [reboxetine]
- frequency of neurosphere formation (hippocampal precursors [4]; 10 μM and 100 μM): significantly enhanced
- neurosphere frequency as percentage of the control (hippocampal precursors [4]; slices treated at 1 μM): 104.5±9.6%
- increase in frequency of neurosphere formation (hippocampal precursors [4]; slices treated at 10 μM): 40%
- neurosphere frequency as percentage of the control (hippocampal precursors [4]; slices treated at 100 μM): 265.0±11.7%

SMILES: CNCC[C@@H](Oc1ccccc1C)c1ccccc1 [atomoxetine]
- neurosphere frequency (hippocampal precursors [4]): significant increase
- neurosphere frequency as percentage of the control (hippocampal precursors [4]; slices treated at 1 μM): 147.0±15.0%

SMILES: CCc1ccccc1OC[C@@H](O)CN[C@H]1CCCc2ccccc21.O=C(O)C(=O)O [SR59230A, 3-(2-ethylphenoxy)-1([1s]-1,2,3,4-tetrahydronaphth-1-ylamino)-2S-propanol oxalate]
- effect of antagonist on norepinephrine-stimulated increase in neurosphere numbers [1]: completely blocked; also recorded: completely inhibited
